From US20240148821A1, “PHARMACEUTICAL USE OF CYCLIC PEPTIDE COMPOUND” (CHUGAI SEIYAKU KABUSHIKI KAISHA, priority 2021, published 2024) come the findings set out here.

Numbered stars: 1 amine (or outer) side, 2 acyl side, 3 side chain; on linkers, the order of the positions; unused ones are H or OH. Bridge positions count the residues as written; N and C are the ends. Square brackets hold non-standard residues; d marks the D form. Peptide text beside a SMILES is read from it. * marks the point of attachment. hPhe(3-Cl-4-CF3) = N[C@@H](CCc1ccc(C(F)(F)F)c(Cl)c1)C(=O)O; hPhe(3-F,4-CF3) = N[C@@H](CCc1ccc(C(F)(F)F)c(F)c1)C(=O)O; X21 = O=C([C@H](CCc1ccc(OC(F)(F)F)c(F)c1)N[*:1])[*:2]; hPhe(4-CF3) = N[C@@H](CCc1ccc(C(F)(F)F)cc1)C(=O)O; 3Oxa8azabicyclo(3.2.1)octane = C1CC2COCC1N2*; NMePhe(4-Cl) = CN[C@@H](Cc1ccc(Cl)cc1)C(=O)O; NMedβ3hAla = C[C@H](CC(=O)[*:2])N(C)[*:1]; NMeGly(cPent) = CN[C@H](C(=O)O)C1CCCC1; NMeGly(cBu) = CN[C@H](C(=O)O)C1CCC1; NMeCha = CN[C@@H](CC1CCCCC1)C(=O)O; NMeI = CC[C@H](C)[C@H](NC)C(=O)O; NMeT = CN[C@H](C(=O)O)[C@@H](C)O; NMeD = CN[C@@H](CC(=O)O)C(=O)O; NMeL = CN[C@@H](CC(C)C)C(=O)O; NMeNle = CCCC[C@H](NC)C(=O)O; NMeV = CN[C@H](C(=O)O)C(C)C; d(β3hA) = C[C@@H](N)CC(=O)O; NMeAbu = CC[C@H](NC)C(=O)O; NMeS = CN[C@@H](CO)C(=O)O; NMeA = CN[C@@H](C)C(=O)O; Piperidide = C1CCN(*)CC1; dNMeA = CN[C@H](C)C(=O)O; Ac5c = NC1(C(=O)O)CCCC1; Aze = O=C(O)[C@@H]1CCN1; Aib = CC(C)(N)C(=O)O; Cyclopropyl = C1CC1*; Sar = CNCC(=O)O; Propyl = CCC*

In the experiment the target is protein-protein interaction between Kras and SOS1 (biotin-tagged human Kras loaded with GDP, His-tagged human SOS1) (Homo sapiens (Human), UniProt P01116, G12D). In words: Protein-protein interaction inhibition between Kras and SOS1 (KrasG12D-SOS PPI) using AlphaScreen.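 Note: kras produced in E. coli, Ni-coupled donor beads and streptavidin acceptor beads, excitation 680 nm with emission detected at 520–620 nm via singlet oxygen transfer.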 The class given is biochemical. The settings on record: AlphaScreen; biotin-tagged human Kras loaded with GDP, His-tagged human SOS1; read-out: KRAS G12D-SOS PPI IC50.
Take `CC[C@H](C)[C@@H]1NC(=O)[C@H](COC2CC2)N(C)C(=O)C[C@@H](C(=O)N2CCCCC2)N(C)C(=O)[C@H](C(C)C)N(C)C(=O)C2(CCCC2)NC(=O)[C@@H]2CCCN2C(=O)[C@H](CCc2ccc(C(F)(F)F)c(Cl)c2)NC(=O)CN(C)C(=O)[C@H](CC2CCCCC2)N(C)C(=O)[C@@H]2CCN2C(=O)[C@H](C)N(C)C1=O` [Compound 1764] ([NMeS](Cyclopropyl)I[NMeA][Aze][NMeCha][Sar][hPhe(3-Cl-4-CF3)]P[Ac5c][NMeV][NMeD]-Piperidide; lactam N-11): the concentration for half-maximal inhibition (IC50) stood at 3.2 nM. Under `CC[C@H](C)[C@@H]1NC(=O)[C@H](C2CCC2)N(C)C(=O)C[C@@H](C(=O)N2CCCCC2)N(C)C(=O)[C@H]([C@@H](C)CC)N(C)C(=O)C2(CCCC2)NC(=O)[C@@H]2CCCN2C(=O)[C@H](CCc2ccc(C(F)(F)F)c(Cl)c2)NC(=O)CN(C)C(=O)[C@H](CC2CCCCC2)N(C)C(=O)[C@@H]2CCN2C(=O)[C@H](C)N(C)C1=O` [Compound 959] ([NMeGly(cBu)]I[NMeA][Aze][NMeCha][Sar][hPhe(3-Cl-4-CF3)]P[Ac5c][NMeI][NMeD]-Piperidide; lactam N-11) stands 1.4 nM. `CC[C@H](C)[C@@H]1NC(=O)[C@H](CC(C)C)N(C)C(=O)C[C@@H](C(=O)N2CCCCC2)N(C)C(=O)[C@H](C(C)C)N(C)C(=O)C2(CCCC2)NC(=O)[C@@H]2CCCN2C(=O)[C@H](CCc2ccc(C(F)(F)F)c(Cl)c2)NC(=O)CN(C)C(=O)[C@H](CC2CCCCC2)N(C)C(=O)[C@@H]2CCN2C(=O)[C@H](CC)N(C)C1=O` [Compound 1569] ([NMeL]I[NMeAbu][Aze][NMeCha][Sar][hPhe(3-Cl-4-CF3)]P[Ac5c][NMeV][NMeD]-Piperidide; lactam N-11): the IC50 amounted to 16 nM. Consider `CC[C@H](C)[C@@H]1NC(=O)[C@H](C)N(C)C(=O)C[C@@H](C)N(C)C(=O)[C@H](CC(C)C)NC(=O)C(C)(C)NC(=O)[C@H](CC(C)C)NC(=O)[C@H](CCc2ccc(C(F)(F)F)cc2)NC(=O)CN(C)C(=O)[C@H](Cc2ccc(Cl)cc2)N(C)C(=O)CN(C)C(=O)CN(C)C1=O` [Compound 170] (cyclo([Aib]L[NMedβ3hAla][NMeA]I[Sar][Sar][NMePhe(4-Cl)][Sar][hPhe(4-CF3)]L)), for which the IC50 worked out at 350 nM.

For `CCCC[C@H]1C(=O)N(C)CC(=O)N[C@@H](CCc2ccc(C(F)(F)F)c(Cl)c2)C(=O)N2CCC[C@H]2C(=O)NC2(CCCC2)C(=O)N(C)[C@@H](C(C)C)C(=O)N(C)[C@H](C(=O)N2CCCCC2)CC(=O)N(C)[C@@H](CC(C)C)C(=O)N[C@@H]([C@@H](C)CC)C(=O)N(C)[C@@H](C)C(=O)N2CC[C@H]2C(=O)N1C` [Compound 1712] ([NMeL]I[NMeA][Aze][NMeNle][Sar][hPhe(3-Cl-4-CF3)]P[Ac5c][NMeV][NMeD]-Piperidide; lactam N-11), the IC50 is 9.8 nM. Take `CCCOC[C@H]1C(=O)N2CC[C@H]2C(=O)N(C)[C@@H](CC2CCCCC2)C(=O)N(C)[C@H](C)C(=O)N[C@@H](CCc2ccc(C(F)(F)F)c(Cl)c2)C(=O)N2CCC[C@H]2C(=O)NC2(CCCC2)C(=O)N(C)[C@@H](C(C)C)C(=O)N[C@H](C)CC(=O)N(C)[C@@H](C)C(=O)N[C@@H]([C@@H](C)CC)C(=O)N1C` [Compound 2016] (cyclo([Ac5c][NMeV][d(β3hA)][NMeA]I[NMeS](Propyl)[Aze][NMeCha][dNMeA][hPhe(3-Cl-4-CF3)]P)): the 50% inhibitory concentration (IC50) came to 270 nM. Take `CCCOC[C@H]1C(=O)N(C)CC(=O)N[C@@H](CCc2ccc(C(F)(F)F)c(F)c2)C(=O)N2CCC[C@H]2C(=O)NC2(CCCC2)C(=O)N(C)[C@@H](C2CCCC2)C(=O)N(C)[C@H](C(=O)N2C3CCC2COC3)CC(=O)N(C)[C@@H](CC(C)C)C(=O)N[C@@H]([C@@H](C)CC)C(=O)N(C)[C@@H](C)C(=O)N2CC[C@H]2C(=O)N1C` [Compound 1030] ([NMeL]I[NMeA][Aze][NMeS](Propyl)[Sar][hPhe(3-F,4-CF3)]P[Ac5c][NMeGly(cPent)][NMeD]-{3Oxa8azabicyclo(3.2.1)octane}; lactam N-11): the concentration for half-maximal inhibition (IC50) was determined as 1.7 nM. Take `CC[C@H](C)[C@@H]1NC(=O)[C@H](CC(C)C)N(C)C(=O)C[C@@H](C(=O)N2CCCCC2)N(C)C(=O)[C@H](C(C)C)N(C)C(=O)C2(CCCC2)NC(=O)[C@@H]2CCCN2C(=O)[C@H](CCc2ccc(C(F)(F)F)c(Cl)c2)NC(=O)CN(C)C(=O)[C@H]([C@@H](C)OC)N(C)C(=O)[C@@H]2CCN2C(=O)[C@H](C)N(C)C1=O` [Compound 929] ([NMeL]I[NMeA][Aze][NMeT](Me)[Sar][hPhe(3-Cl-4-CF3)]P[Ac5c][NMeV][NMeD]-Piperidide; lactam N-11): the concentration for half-maximal inhibition (IC50) is 4.1 nM. As to `CC[C@H](C)[C@@H]1NC(=O)[C@H](CC(C)C)N(C)C(=O)C[C@@H](C(=O)N2CCCCC2)N(C)C(=O)[C@H](C2CCCC2)N(C)C(=O)C2(CCCC2)NC(=O)[C@@H]2CCCN2C(=O)[C@H](CCc2ccc(OC(F)(F)F)c(F)c2)NC(=O)CN(C)C(=O)[C@H](CC2CCCCC2)N(C)C(=O)[C@@H]2CCN2C(=O)[C@H](C)N(C)C1=O` [Compound 2067] ([NMeL]I[NMeA][Aze][NMeCha][Sar][X21]P[Ac5c][NMeGly(cPent)][NMeD]-Piperidide; lactam N-11 (inferred); C-terminus assumed), the half-inhibitory concentration (IC50) stood at 0.84 nM.
